For test [1], the system named is paw edema induced by exogenous PLA2 (snake, A. piscivorus piscivorus). As to the kind of experiment: In vivo PLA2 murine paw edema assay. Also on record: species or system mouse (male CD-1). How it is done:
The ability of the compounds of the invention to inhibit paw edema induced by the exogenous administration of PLA2 is measured in the in vivo PLA2 murine paw edema assay.
The assay is carried out as follows:
Non-fasted, male CD-1 mice (8 weeks old; 31-36 grams) are placed in plastic boxes in groups of six. The right hind paw volume is measured using mercury plethysmography (zero time). […] A solution of purified PLA2, from the diamond back cotton mouth snake (A. piscivorus piscivorus) is prepared in saline at a concentration of 6 μg/ml. Fifty (50) μl (0.3 μg) of this PLA2 solution is injected subcutaneously into the right hind paw with a plastic 1 ml plastic syringe (27 gauge, 1" needle). Paw volume of the injected paw is measured again at 10 minutes, 30 minutes and 60 minutes after PLA2 injection. Animals are euthanized with CO2 at the completion of the study.
The paw edema is calculated by subtracting the zero time volume from the volume recorded at each time period. Mean paw edema for each treatment group is then calculated and expressed as (μl±S.E.). Drug effects are expressed as a percent change from control (vehicle) values. Statistical significance is determined by a one-way analysis of variance with LSD comparison to control (p<0.05). ED50 's are determined using repression analysis.

In the next test the test system is 6-keto-PGF1α /TxB2. Kind of test: In vivo murine zymosan peritonitis assay, 6-keto-PGF1α (cyclooxygenase pathway). Also on record: species or system mouse (male CD-1). The method, then: The compounds of the invention are evaluated for their ability to inhibit the lipoxygenase and/or cyclooxygenase pathways of arachidonic acid metabolism in the in vivo murine zymosan peritonitis assay.
(§1) This assay is carried out as follows:
Male CD-1 mice (8 weeks old) are placed in plastic boxes in groups of six. Animals are injected with 1 ml i.p. of either 1% zymosan in pyrogen free 0.9% saline or saline (unstimulated control). Compounds are dosed orally 1 hour prior to zymosan injection. Twenty minutes after zymosan injection, the mice are asphyxiated by CO2 inhalation and the peritoneal cavity is lavaged with 2 ml ice cold Hanks Balanced Salt Solution (HBSS) without CaCl2, MgSO4 ·7H2 O and MgCL2 ·6H2 O. Peritoneal lavage fluid from each mouse is removed by syringe and placed in 5 ml plastic test tubes put on ice and volume is noted. Preparation of samples for evaluation by ELISA is as follows: Samples are centrifuged at 800×g for 15 minutes; 1 ml of the supernatant is added to 8 ml ice cold methanol and kept at -70° C. overnight to precipitate protein; and samples are then centrifuged at 800×g for 15 minutes, followed by a drying procedure in a Savant speed vac concentrator. The samples are reconstituted with 1 ml ice cold ELISA buffer and stored at -70° C. until assayed. The assay for eicosanoids (LTC4 and 6-keto-PGF1α) is performed according to conventional ELISA procedures.
Compounds to be tested orally are suspended in 0.5% Tween 80. Compounds to be tested intraperitoneally are suspended in 0.5% methylcellulose in 0.9% saline.
The total metabolite level in lavage fluid/mouse is calculated and the significance is determined by a one-way analysis of variance with LSD comparisons to control (p≤0.05). Drug effects are expressed as a percent change from control values.

Test [2] deals with T1, human synovial fluid PLA2 (Homo sapiens, UniProt P14555).
T1 construct: Purified human synovial fluid; from tissue; host or cells: human synovial fluid
T1 sequence (P14555 21-144): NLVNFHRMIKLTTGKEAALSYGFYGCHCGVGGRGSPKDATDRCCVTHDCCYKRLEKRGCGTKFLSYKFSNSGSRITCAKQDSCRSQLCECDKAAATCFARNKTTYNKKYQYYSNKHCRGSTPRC
Kind of test: In vitro isolated phospholipase A2 assay, human synovial fluid PLA2. The test is classed as biochemical. How it is done:
The compounds of the invention are tested in an in vitro isolated phospholipase A2 assay to determine the ability of the test compounds to inhibit the release of arachidonic acid from an arachidonic acid-containing substrate by the action of phospholipase A2 enzyme from human and non-human sources.
as §1
Into a 15 mL polypropylene tube are added the following:
*pre-incubate at room temperature 30 min prior to substrate addition.
^5 Stock 10 mM prepared in dimethyl sulfoxide. Make 1:2 dilution with
dimethyl sulfoxide and add 1 μ L to 100 μL assay tube.
^6 Two human PLA2 enzymes are used:
b) Purified human synovial fluid.
Incubate the 100 μL reaction mixture for 10 minutes at 37° C. in a shaking water bath. The reaction is terminated by the addition of 2 mL tetrahydrofuran, followed by vortexing. NH2 columns (100 μg/mL--Analytichem International) are conditioned with 0.5 mL tetrahydrofuran followed by 0.5 mL tetrahydrofuran/water (2 mL:0.1 mL, v/v).
The sample is loaded onto the columns and slowly drawn through them. The hydrolyzed arachidonic acid retained in the columns is eluted therefrom with 1 mL tetrahydrofuran/glacial acetic acid (2%). The arachidonic acid is transferred to scintillation vials and quantitated by β-counting analysis. A "total counts" sample is prepared by pipetting 25 μL ^3 H-arachidonate E. coli directly into a scintillation vial to which is added 1 mL tetrahydrofuran. 10 mL aquasol (scintillation cocktail) is added to all samples. [formula]

A further test deals with T2, human platelet PLA2 (Homo sapiens, UniProt P14555).
T2 construct: Semipurified human platelet acid extract PLA2; from tissue; host or cells: human platelets (semipurified acid extract)
T2 sequence (P14555 21-144): T1 sequence (P14555 21-144)
As to the kind of experiment: In vitro isolated phospholipase A2 assay, human platelet PLA2 (arachidonic acid release from 3H-AA E. coli substrate). The class given is biochemical.

Each structure is given as a SMILES string. Where two headings read alike, the source gives them in different places.

For `O=C(O)Cc1cc(OCc2ccc3ccccc3n2)ccc1Nc1c(Cl)cccc1Cl` [Example 2, 2-[(2,6-Dichlorophenyl)amino]-5-(2-quinolylmethoxy)benzene acetic acid], the “% Change in Edema 10 min” value was -45% in test [1] (10 mg/kg i.v.) and -52% in test [1] (100 mg/kg p.o.). Also, the “% Change in Edema 30 min” value in test [1] (10 mg/kg i.v.) is -37%; in test [1] (100 mg/kg p.o.) it was -48%. Further, the “% Change in Edema 60 min” value in test [1] (10 mg/kg i.v.) is recorded as -32%; in test [1] (100 mg/kg p.o.), -28%. Moreover, the “% Inhibition 6-keto-PGF” value in the test on 6-keto-PGF1α /TxB2 (50 mg/kg p.o., negative values denote potentiation) was -25%; in the test with 6-keto-PGF1α /TxB2 (100 mg/kg p.o.), 65%. For the same compound, the inhibition at 10 µM in test [2] (10 μM, Table IV, read-out: % Inhibition at a concentration of 10 μM, HSF) is 47.6%; on human platelet PLA2 (10 μM, Table IV, read-out: % Inhibition at a concentration of 10 μM, HP), 12.7%. The IC50 (commonly the concentration that gives 50% inhibition) in test [2] (human synovial fluid) is 6.3 µM.

For `O=C(O)Cc1ccccc1Nc1c(Cl)cccc1Cl` [diclofenac, reference compound], in test [1] (10 mg/kg i.v.), the “% Change in Edema 10 min” value is -19%, the “% Change in Edema 30 min” value was -15% and the “% Change in Edema 60 min” value is given as -1%. In test [1] (100 mg/kg p.o.), the “% Change in Edema 10 min” value is on record as -28%, the “% Change in Edema 30 min” value was -38% and the “% Change in Edema 60 min” value is given as -15%. The ED50 (as a rule, the midpoint of the dose-response relation) in the test on 6-keto-PGF1α /TxB2 (Mus musculus, po, read-out: ED50 6-keto-PGF) is 0.77 mg/kg. For the same compound, the inhibition at 10 µM in test [2] (read-out: % Inhibition at 10 μM HSF) is 0%. For the same compound, the inhibition at 10 µM on human platelet PLA2 (read-out: % Inhibition at 10 μM HP) was 23%.

Values taken from patent US5159085A, “2-anilino phenylacetic acid derivatives as inhibitors of PLA2 and lipoxygenase” (American Home Products Corporation, priority 1991, dated 1992).
